{
  "source": "patent US20250051825A1",
  "about": "“Ex Vivo Production of Compounds of Interest” (Nederlandse Organisatie voor …, priority 2021, published 2025)",
  "key": {"perfused porcine liver [1]": {"tested_on": "perfused porcine liver", "test": "Atorvastatin normothermic machine perfusion of ex vivo porcine liver, perfusate and bile analysed by LC/MS", "assay_type": "in vitro ADME, Sus scrofa domesticus", "conditions": "for % billiary clearance (metabolite abundance as percentage of given Atorvastatin dose): 0-120 min, Atorva alone, 0.104 mg atorvastatin to portal vein, bile, n = 1", "description": "Porcine Livers. Livers were obtained from a local slaughterhouse (Sus scrofa domesticus, approximately at the age of 6 months, with body weight between 100 and 120 kg). Pigs were sacrificed by a standardized procedure of electrocution followed by exsanguination. Thereafter, 3 L of blood was collected in a container supplemented with 25,000 IU of heparin. All abdominal organs were dissected outside the animal and collected. Within 20 minutes after termination, the vena porta was cannulated and directly flushed by gravity with 3 L of NaCl 0.9% (Baxter BV, Utrecht, The Netherlands) supplemented with 5000 IU of heparin followed by 2 L of ice-cold histidine-tryptophan-ketoglutarate solution (Plegistore, Warszawa, Poland). In the meantime, the arteria hepatica was dissected, cannulated, and subsequently flushed with histidine-tryptophan-ketoglutarate. At the laboratory, side branches were ligated, and the common bile duct was cannulated, whereas the ductus cysticus, derived from the gall bladder, was ligated. Normothermic Machine Perfusion. The porcine livers were perfused using the LiverAssist device (XVIVO, Groningen, The Netherlands). The machine consists of two rotary pumps that provide a pulsatile flow to the hepatic artery and a continuous flow to the portal vein. The system was filled with 2 L perfusion fluid containing red blood cells and perfusate (Table 2). […] Additionally, amino acids and vitamins were continuously provided to keep the liver metabolically active. Gas delivery to the LiverAssist consisted of 95% oxygen and 5% carbon dioxide at 2 L/min, and the temperature was set at 39 C (body temperature pigs). […] Arterial blood gas samples were taken hourly to monitor liver viability (PH, glucose, Na, K, lactate, etc.) using the i-STAT clinical analyzer (Abbot Point of Care Inc., Princeton, NJ). […] Time of starting the slow bolus was set at t=0 min. […] Drug concentrations in perfusate, bile and liver biopsies were determined by LC-MS/MS analysis as described below. […] Briefly, 20 μL of sample was extracted by adding 100 μL of acetonitrile containing internal standard. […] Samples were then mixed with 50 μL of water, vortexed and injected in to LC/MS for quantification. The mass spectrometer (AB Sciex API 5500) was operated in electrospray positive ion mode with the capillary voltage of 5.5 kV and Spray temperature of 550° C. The multiple reaction monitoring transitions used for all the compounds are shown table 4."}, "perfused porcine liver [2]": {"tested_on": "perfused porcine liver", "test": "Midazolam continuous portal administration to ex vivo perfused porcine liver, metabolite quantified by UPLC/MS"}, "[3]": {"conditions": "240 min of perfusion, input of 49.8 mg midazolam"}, "[4]": {"conditions": "from 40 mg midazolam (as summarised in description)"}},
  "data": [
    {"smiles": "CC(C)c1c(C(=O)Nc2ccc(O)cc2)c(-c2ccccc2)c(-c2ccc(F)cc2)n1CC[C@@H](O)C[C@@H](O)CC(=O)O", "note": "[4-hydroxy atorva, 4-hydroxy atorvastatin]", "values": [
      {"measurement": "% billiary clearance (metabolite abundance as percentage of given Atorvastatin dose)", "setting": "perfused porcine liver [1]", "value": 10.28, "unit": "%"}
    ]},
    {"smiles": "CC(C)c1c(C(=O)Nc2ccccc2)c(-c2ccccc2)c(-c2ccc(F)cc2)n1CC[C@@H](O)C[C@@H](O)CC(=O)O", "note": "[atorvastatin, Atorvastatin, reference compound]", "values": [
      {"measurement": "time until atorvastatin was detected in the bile", "setting": "perfused porcine liver [1]; after the start of the bolus administration, slow bolus of 0.104 mg over 10 minutes to portal vein", "value": "≤ 10", "unit": "min"},
      {"measurement": "parent compound secreted into the bile", "setting": "perfused porcine liver [1]; within 120 min of perfusion, 0.104 mg to portal vein", "value": "13.0±5.6", "unit": "%"}
    ]},
    {"smiles": "CC(C)c1c(C(=O)Nc2ccccc2O)c(-c2ccccc2)c(-c2ccc(F)cc2)n1CCC1CC(O)CC(=O)O1", "note": "(stereo not drawn) [2-hydroxy atorva lactone, 2-hydroxy atorvastatin lactone]", "values": [
      {"measurement": "% billiary clearance (metabolite abundance as percentage of given Atorvastatin dose)", "setting": "perfused porcine liver [1]", "value": 3.48, "unit": "%"}
    ]},
    {"smiles": "CC(C)c1c(C(=O)Nc2ccc(O)cc2)c(-c2ccccc2)c(-c2ccc(F)cc2)n1CCC1CC(O)CC(=O)O1", "note": "(stereo not drawn) [4-hydroxy atorva lactone, 4-hydroxy atorvastatin lactone]", "values": [
      {"measurement": "% billiary clearance (metabolite abundance as percentage of given Atorvastatin dose)", "setting": "perfused porcine liver [1]", "value": 0.400, "unit": "%"}
    ]},
    {"smiles": "CC(C)c1c(C(=O)Nc2ccccc2)c(-c2ccccc2)c(-c2ccc(F)cc2)n1CC[C@@H]1C[C@@H](O)CC(=O)O1", "note": "[Atorvastatin lactone]", "values": [
      {"measurement": "% billiary clearance (metabolite abundance as percentage of given Atorvastatin dose)", "setting": "perfused porcine liver [1]", "value": 9.17, "unit": "%"}
    ]},
    {"smiles": "CC(C)c1c(C(=O)Nc2ccccc2O)c(-c2ccccc2)c(-c2ccc(F)cc2)n1CCC(O)CC(O)CC(=O)O", "note": "(stereo not drawn) [2-hydroxy atorva, 2-hydroxy atorvastatin]", "values": [
      {"measurement": "% billiary clearance (metabolite abundance as percentage of given Atorvastatin dose)", "setting": "perfused porcine liver [1]", "value": 5.33, "unit": "%"}
    ]},
    {"smiles": "O=C(O)[C@H]1O[C@@H](OCc2ncc3n2-c2ccc(Cl)cc2C(c2ccccc2F)=NC3)[C@H](O)[C@@H](O)[C@@H]1O", "note": "[1-OH midazolam glucuronide, midazolam 1′O-glucuronide]", "values": [
      {"measurement": "presence in perfusate (chromatogram)", "setting": "perfused porcine liver [2]; 240 min after starting the portal administration of midazolam", "value": "(abundant) presence"},
      {"measurement": "Yield 1-OH midazolam glucuronide, Bile", "setting": "perfused porcine liver [2]; [3]", "value": 0.254, "unit": "mg"},
      {"measurement": "Yield 1-OH midazolam glucuronide, Perfusate", "setting": "perfused porcine liver [2]; [3]", "value": 1.19, "unit": "mg"},
      {"measurement": "Yield 1-OH midazolam glucuronide, Tissue", "setting": "perfused porcine liver [2]; [3]", "value": 1.891, "unit": "mg"},
      {"measurement": "Yield 1-OH midazolam glucuronide, Total", "setting": "perfused porcine liver [2]; 240 min of perfusion, input of 49.8 mg midazolam, sum of perfusate, bile, tissue", "value": "3.33 mg 1-OH midazolam glucuronide"},
      {"measurement": "metabolite obtained from liver tissue", "setting": "perfused porcine liver [2]; [4]", "value": 2, "unit": "mg"},
      {"measurement": "metabolite obtained from plasma and bile", "setting": "perfused porcine liver [2]; [4]", "value": 1.5, "unit": "mg"},
      {"measurement": "total metabolite produced", "setting": "perfused porcine liver [2]; [4]", "value": 3.5, "unit": "mg"}
    ]}
  ]
}
